Tests used:
H358 cells = assay: H358 cell proliferation inhibition (CellTiter-Glo luminescent cell viability assay); type: cell-based; conditions: Homo sapiens, NCI-H358, 168 h, 7 days
Description: The effect of the compounds of the present invention on H358 cell proliferation was assessed by CellTiter-Glo luminescent cell viability assay kit method.
H358 cells (ATCC, CRL-5807) were cultured in RPMI1640 (Hyclone, SH30256.01) complete medium containing 10% FBS (Gibco, 10100147) and 100 U/mL penicillin-streptomycin mixed solution (Gibco, 15140163). When the cells grew to 80-90%, the cells were digested, pipetted, and seeded in a 96-well plate (Corning, 4515) at 3000 cells/well (180 µL RPMI1640 complete medium), and then the 96-well plate was incubated overnight in an incubator at 37 °C with 5% CO2.
After incubation overnight, 20 µL of a diluted test compound was added to each well using a multi-channel pipette, and the 96-well plate was placed in an incubator at 37 °C with 5% CO2 for further culture. After 7 days, 100 µL of the supernatant was pipetted and discarded. 50 µL of CellTiter-Glo® 3D Cell Viability Assay liquid was added to each well. The plate was shaken at room temperature at 450 rpm for 30 min. After the cells were completely lysed, "Luminescence" on the microplate reader was selected for plate reading. In this experiment, the cell-free group (replaced with 1640 medium) was used as the 100% inhibition group, and the compound-free group in which the cell was added was used as the 0% inhibition group.
The inhibition percentage of H358 cell proliferation by the compounds of the present invention could be calculated by the following formula: [formula]
IC50 values of the compounds were calculated from 8 concentration points using XLfit (ID Business Solutions Ltd., UK) software by the following formula: Y = Bottom + (Top−Bottom)/(1+10^(∧)((logIC50−X)×slopefactor)) [formula]
Y is the inhibition percentage, X is the logarithmic value of the concentration of the test compound, Bottom is the minimum inhibition percentage, Top is the maximum inhibition percentage, and slope factor is the slope coefficient of the curve.

[1] = tested on: p-ERK pathway in H358 cells; assay: p-ERK pathway inhibition in H358 cells (Advanced phospho-ERK (Thr202/Tyr204) cellular kit, HTRF); type: cell-based; conditions: Homo sapiens, NCI-H358, 1 h compound incubation
Procedure, shortened: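 Serum-starved H358 cells (50000/well, overnight) treated with compound for 1 h at 37 °C, then lysed; phospho-ERK (Thr202/Tyr204) read by HTRF (665/620 nm ratio). Cell-free wells set 100% inhibition, untreated cells 0%; IC50 fitted from 8 concentrations by four-parameter curve.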

Row | Compound | IC50 (H358 cells) | IC50 [1]
1 | Cc1nc(N[C@H](C)c2cccc(C(F)F)c2F)c2cn(N3CCOCC3)c(=O)c(N3CCOC[C@@H]3C)c2n1 [Example 68, 4-(((R)-1-(3-(difluoromethyl)-2-fluorophenyl)ethyl)amino)-2-methyl-8-((S)-3-methylmorpholine)-6-morpholinepyrido[4,3-d]pyrimidine-7(6H)-one] | 25.2 nM | 15.3 nM
2 | Cc1nc(N[C@H](C)c2cccc(C(F)F)c2F)c2cn(C3(CF)CC3)c(=O)c(N3CC4CC(C3)N4C3COC3)c2n1 [Example 152, 4-(((R)-1-(3-(difluoromethyl)-2-fluorophenyl)ethyl)amino)-6-(1-(fluoromethyl)cyclopropyl)-2-methyl-8-(6-(oxetan-3-yl)-3,6-diazabicyclo[3.1.1]heptan-3-yl)pyrido[4,3-d]pyrimidine-7(6H)-one] | 13.6 nM | 76.3 nM
3 | Cc1nc(N[C@H](C)c2cccc(C(F)F)c2F)c2cn(C3(CF)CC3)c(=O)c(N3CCOCC3(C)C)c2n1 [Example 52, (R)-4-((1-(3-(difluoromethyl)-2-fluorophenyl)ethyl)amino)-8-(3,3-dimethylmorpholine) -6-(1-(fluoromethyl)cyclopropyl)-2-methylpyrido[4,3-d]pyrimidine-7(6H)-one] | 26.5 nM | 41.4 nM
4 | Cc1nc(N[C@H](C)c2cccc(C(F)F)c2F)c2cn(C3(CF)CC3)c(=O)c(N3CCO[C@@H](C)C3)c2n1 [Example 43, 4-(((R)-1-(3-(difluoromethyl)-2-fluorophenyl)ethyl)amino)-6-(1-(fluoromethyl)cyclopropyl)-2-methyl-8-((S)-2-methylmorpholine)pyrido[4,3-d]pyrimidine-7(6H)-one] | 50.8 nM | 49.2 nM
5 | Cc1nc(N[C@H](C)c2cccc(C(F)F)c2F)c2cn(N3CCOCC3)c(=O)c(-c3cnn4c3COCC4)c2n1 [Example 138, (R)-4-((1-(3-(difluoromethyl)-2-fluorophenyl)ethyl)amino)-8-(6,7-dihydro-4H-pyrazolo[5,1-c][1,4]oxazin-3-yl)-2-methyl-6-morpholinylpyrido[4,3-d]pyrimidine-7(6H)-one] | 115 nM | 63.1 nM
6 | Cc1nc(N[C@H](C)c2cccc(C(F)F)c2F)c2cn(C3(CF)CC3)c(=O)c(N3CCOC[C@@H]3C(C)C)c2n1 [Example 57, 4-(((R)-1-(3-(difluoromethyl)-2-fluorophenyl)ethyl)amino)-6-(1-(fluoromethyl)cyclopropyl)-8-((S)-3-isopropylmorpholino)-2-methylpyrido[4,3-d]pyrimidine-7(6H)-one] | 73.1 nM | 67.5 nM
7 | CC[C@H]1COCCN1c1c(=O)n(C2(CF)CC2)cc2c(N[C@H](C)c3cccc(C(F)F)c3F)nc(C)nc12 [Example 58, 4-(((R)-1-(3-(difluoromethyl)-2-fluorophenyl)ethyl)amino)-8-((S)-3-ethylmorpholino)-6-(1-(fluoromethyl)cyclopropyl)-2-methylpyrido[4,3-d]pyrimidine-7(6H)-one] | 57.9 nM | 112 nM
8 | Cc1nc(N[C@H](C)c2cccc(C(F)(F)F)c2C)c2cn(N3CCOCC3)c(=O)c(N3CCN(C)CC3)c2n1 [Example 70, (R)-2-methyl-4-((1-(2-methyl-3-(trifluoromethyl)phenyl)ethyl)amino)-8-(4-methylpiperazin-1-yl)-6-morpholinepyrido[4,3-d]pyrimidine-7(6H)-one] | 45.2 nM | 34.5 nM
9 | Cc1nc(N[C@H](C)c2cccc(C(F)F)c2F)c2cn(C3(CF)CC3)c(=O)c(N3CCN(CC4COC4)CC3)c2n1 [Example 133, (R)-4-((1-(3-(difluoromethyl)-2-fluorophenyl)ethyl)amino)-6-(1-(fluoromethyl)cyclopropyl)-2-methyl-8-(4-(oxetan-3-ylmethyl)piperazin-1-yl)pyrido[4,3-d]pyrimidine-7(6H)-one] | 34.9 nM | 70 nM
10 | Cc1nc(N[C@H](C)c2cccc(C(F)F)c2F)c2cn(C3(CF)CC3)c(=O)c(N3CCOC[C@@H]3CO)c2n1 [Example 135, 4-(((R)-1-(3-(difluoromethyl)-2-fluorophenyl)ethyl)amino)-6-(1-(fluoromethyl)cyclopropyl)-8-((S)-3-(hydroxymethyl)morpholinyl)-2-methylpyrido[4,3-d]pyrimidine-7(6H)-one] | 65.2 nM | 59 nM
11 | Cc1nc(N[C@H](C)c2cccc(C(F)F)c2F)c2cn(C3(CF)CC3)c(=O)c(OC(C)C)c2n1 [Example 36, (R)-4-((1-(3-(difluoromethyl)-2-fluorophenyl)ethyl)amino)-6-(1-(fluoromethyl)cyclopropyl)-8-isopropoxy-2-methylpyrido[4,3-d]pyrimidine-7(6H)-one] | 64.8 nM | 69.1 nM
12 | Cc1nc(N[C@H](C)c2cccc(C#N)c2C)c2cn(N3CCOCC3)c(=O)c(N3CCN(C)CC3)c2n1 [Example 76, (R)-2-methyl-3-(1-((2-methyl-8-(4-methylpiperazin-1-yl)-6-morpholine-7-oxo-6,7-dihydropyrido[4,3-d]pyrimidin-4-yl)amino)ethyl)benzonitrile] | 108 nM | 113 nM
13 | Cc1nc(N[C@H](C)c2cccc(C#N)c2C)c2cn(N3CCOCC3)c(=O)c(OC3(C)CC3)c2n1 [Example 91, (R)-2-methyl-3-(1-((2-methyl-8-(1-methylcyclopropoxy)-6-morpholinyl-7-oxo-6,7-dihydropyrido[4,3-d]pyrimidin-4-yl)amino)ethyl)benzonitrile] | 148 nM | 133 nM
14 | Cc1nc(N[C@H](C)c2cccc(C#N)c2C)c2cn(C3(CF)CC3)c(=O)c(N3CCOCC3)c2n1 [Example 47] | 23.7 nM | 37.5 nM
15 | Cc1nc(N[C@H](C)c2cccc(S(F)(F)(F)(F)F)c2)c2cn(N3CCOCC3)c(=O)c(N3CCN(C)CC3)c2n1 [Example 82, (R)-2-methyl-8-(4-methylpiperazin-1-yl)-6-morpholine-4-((1-(3-(pentafluoro-λ^6-sulfanyl)phenyl)ethyl)amino)pyrido[4,3-d]pyrimidine-7(6H)-one] | 30.4 nM | 74.6 nM
16 | Cc1nc(N[C@H](C)c2cccc([N+](=O)[O-])c2C)c2cn(C3(CF)CC3)c(=O)c(N3CCOCC3)c2n1 [Example 117, (R)-6-(1-(fluoromethyl)cyclopropyl)-2-methyl-4-((1-(2-methyl-3-nitrophenyl)ethyl)amino)-8-morpholinylpyrido[4,3-d]pyrimidine-7(6H)-one] | 13.3 nM | 22.4 nM
17 | Cc1nc(N[C@H](C)c2cccc(C(F)F)c2F)c2cn(C3(CF)CC3)c(=O)c(-n3ncc4ncccc43)c2n1 [Example 104, (R)-4-((1-(3-(difluoromethyl)-2-fluorophenyl)ethyl)amino)-6-(1-(fluoromethyl)cyclopropyl)-2-methyl-8-(1H-pyrazolo[4,3-b]pyridin-1-yl)pyrido[4,3-d]pyrimidine-7(6H)-one] | 145 nM | 57.5 nM
18 | Cc1nc(N[C@H](C)c2cccc(S(F)(F)(F)(F)F)c2)c2cn(N3CCOCC3)c(=O)c(-c3ccc(C#N)nc3)c2n1 [Example 22, (R)-5-(2-methyl-6-morpholinyl-7-oxo-4-((1-(3-(pentafluoro-λ^6-sulfanyl)phenyl)ethyl)amino)-6,7-dihydropyrido[4,3-d]pyrimidin-8-yl)pyridinecarbonitrile] | 129 nM | 180 nM
19 | Cc1nc(N[C@H](C)c2cccc(C(F)F)c2F)c2cn(C3(CF)CC3)c(=O)c(N3C[C@@H](C)O[C@@H](C)C3)c2n1 [Example 41, 4-(((R)-1-(3-(difluoromethyl)-2-fluorophenyl)ethyl)amino)-8-((2S,6R)-2,6-dimethylmorpholino)-6-(1-(fluoromethyl)cyclopropyl)-2-methylpyrido[4,3-d]pyrimidine-7(6H)-one] | 52 nM | 117 nM
20 | COc1c(=O)n(C2(CF)CC2)cc2c(N[C@H](C)c3cccc(C(C)(F)F)c3F)nc(C)nc12 [Example 11, (R)-4-((1-(3-(1,1-difluoroethyl)-2-fluorophenyl)ethyl)amino)-6-(1-(fluoromethyl)cyclopropyl)-8-methoxy-2-methylpyrido[4,3-d]pyrimidine-7(6H)-one] | 50.8 nM | 88.2 nM
21 | Cc1nc(N[C@H](C)c2cccc(C(F)F)c2F)c2cn(C3(CF)CC3)c(=O)c(OCc3ccccn3)c2n1 [Example 122, (R)-4-((1-(3-(difluoromethyl)-2-fluorophenyl)ethyl)amino)-6-(1-(fluoromethyl)cyclopropyl)-2-methyl-8-(pyridin-2-ylmethoxy)pyrido[4,3-d]pyrimidine-7(6H)-one] | 102 nM | 111 nM

Source: patent EP4417607A1, “HETEROCYCLIC COMPOUND AS SOS1 INHIBITOR AND USES THEREOF” (Nanjing Zaiming Pharmaceutical Co., Ltd., priority 2021, dated 2023)
